The record followed here is patent US11858972B2, “Micropeptides and uses thereof” (FUNDACIÓ PRIVADA INSTITUT D'INVESTIGACIÓ ONCOLÒGICA DE VALL …, priority 2018, dated 2024).

Common to all, as to assay type: cell-based, human
In assay [1] the test system is SEQ ID NO:1 in HCT116 and A549 cells. The experiment in a line: SEQ ID NO:1 expression (qPCR, Western Blot) after drug treatment, wild-type p53 cells. The settings on record: cells with wild-type p53 (HCT116 and A549); Doxorubicin 1 μM, Actinomycin D 1 nM, Nutlin-3a 10 μM. The protocol: (§1) FIG. 10. SEQ ID NO: 1 is induced by genotoxic stress in a p53-dependent manner. HCT116, HCT116 p53KO, A549 and BxPC3 were treated with Doxorubicin (1 μM) or Actinomycin D (1 nM) and Nutlin-3a (10 μM). SEQ ID NO: 1 transcriptional levels were measured by qPCR in A549 and HCT116 (A) and in HCT116 p53KO and BxPC-3 (B). mRNA expression is shown relative to the not treated control. SEQ ID NO: 1 protein was measured by Western Blot analysis using a custom-made anti-SEQ ID NO: 1 antibody in A549 and HCT116 (A) and in HCT116 p53KO and BxPC-3 (B). (C) Immunostaining showing the upregulation of SEQ ID NO: 1 in A549 cells using a custom-made anti-SEQ ID NO: 1 antibody upon Doxorubicin treatment.
(§2) Doxorubicin, Actinomycin D and Nutlin-3a were purchased from Sigma-Aldrich. Doxorubicin was used at 1 μM, Actinomycin D was used at […] and Nutlin-3a was used at 10 μM in drug treatment experiments.
(§3) Total RNA was extracted with Trizol® and treated with TURBO™ DNase following provider's recommendations. 1 μg of RNA was retrotranscribed using iScript™ cDNA Synthesis Kit (BioRad). Gene expression was analysed by quantitative real time PCR using PowerUp SYBR Green Master Mix (Thermo Fisher Scientific) in the 7900HT Fast Real-Time PCR System (Applied Biosystems). Cycle threshold (Ct) values were normalized to GAPDH.
(§4) Cells pellets (4-5*10^6 cells) were homogenized in medium-salt lysis buffer (150 mM NaCl, 50 mM Tris pH 8, 1% NP40 and protein inhibitors cocktail). 50 μg of protein was loaded per lane in a 12% acrylamide gel and electrophoresed in Tris-Glycine SDS Running Buffer. The following antibodies were used: Anti-HA-Tag (Abcam, 1:5000), Anti-p53 (Santa Cruz, 1:1000), Anti-p21 (Thermo Fisher, 1:1000), Anti-GAPDH (Thermo Fisher, 1:5000).

Assay [2] relates to SEQ ID NO:1 in HCT116 p53KO and BxPC-3 cells. The experiment in a line: SEQ ID NO:1 expression (qPCR, Western Blot) after drug treatment, p53 altered cells. The settings on record: p53 status altered: HCT116 p53KO, BxPC-3 (mutant p53); Doxorubicin 1 μM, Actinomycin D 1 nM, Nutlin-3a 10 μM. The protocol:
as §1, §2, §3, §4

For assay [3], the system named is SEQ ID NO 3 in HCT116 p53 KO. Nature of the assay: SEQ ID NO: 3 mRNA levels by RT-qPCR after drug treatment in HCT116 p53 knock-out. Particulars: Nutlin3a 10 μM 48 h, Doxorubicin 1 μM 24 h. On the procedure:
FIG. 25. […] (A) HCT116 and HCT116 p53KO cells were treated with MDM2 inhibitor Nutlin3a (10 μM) during 48 h. SEQ ID NO: 3 transcriptional levels were tested by RT-qPCR. mRNA levels are normalized to untreated control (B) HCT116 and HCT116 p53KO cells were treated with genotoxic agent Doxorubicin (1 μM) during 24 h. SEQ ID NO: 3 mRNA levels were tested by RT-qPCR. mRNA levels are presented relative to GAPDH reference gene. Bars represent average of n=3 technical replicates±SD.
as §2, §3
For orientation: Quantitative PCR measures a nucleic acid by following its amplification.

Assay [4] has as its system SEQ ID NO 3 in HCT116. The experiment in a line: SEQ ID NO: 3 mRNA levels by RT-qPCR after drug treatment in HCT116. The settings on record: Nutlin3a 10 μM 48 h, Doxorubicin 1 μM 24 h. The protocol:
FIG. 25. […] (A) HCT116 and HCT116 p53KO cells were treated with MDM2 inhibitor Nutlin3a (10 μM) during 48 h. […] SEQ ID NO: 3 mRNA levels were tested by RT-qPCR. mRNA levels are presented relative to GAPDH reference gene. Bars represent average of n=3 technical replicates±SD.
as §2, §3

Molecules are shown by their SMILES. *1 amine or outer side, *2 acyl side, *3 side chain or, on linkers, in order; H or OH if unused. Where a SMILES comes first, the peptide text is derived from it. Bridges are numbered along the chain shown (N, C = ends). Roman numbers before positions name the chains, in order. [ ]: non-standard residue; d: D form. Actinocin(9to1) = Cc1c2oc3c(C)ccc(C(=O)[*:1])c3nc-2c(C(=O)[*:2])c(N)c1=O; NMeV = CN[C@H](C(=O)O)C(C)C; Sar = CNCC(=O)O

Take `COc1cccc2c1C(=O)c1c(O)c3c(c(O)c1C2=O)C[C@@](O)(C(=O)CO)C[C@@H]3O[C@H]1C[C@H](N)[C@H](O)[C@H](C)O1` [Doxorubicin]: the “expression of SEQ ID NO:1 (mRNA and protein levels)” value was “transcriptional and translational upregulation” in assay [1]; “do not shown the same response” in assay [2]. For the same compound, the figures for the “SEQ ID NO 3 transcriptional levels” value in assay [3] and in assay [4] were “upregulation was impaired” and “upregulated”, respectively.
`Cc1c2oc3c(C)ccc(C(=O)N[C@@H]4C(=O)N[C@H](C(C)C)C(=O)N5CCC[C@H]5C(=O)N(C)CC(=O)N(C)[C@@H](C(C)C)C(=O)O[C@@H]4C)c3nc-2c(C(=O)N[C@@H]2C(=O)N[C@H](C(C)C)C(=O)N3CCC[C@H]3C(=O)N(C)CC(=O)N(C)[C@@H](C(C)C)C(=O)O[C@@H]2C)c(N)c1=O` [Actinomycin D] (I: T[dV]P[Sar][NMeV] / II: T[dV]P[Sar][NMeV]; ester I:1-I:C, II:1-II:C; linker I:N-II:N via Actinocin(9to1)): the “expression of SEQ ID NO:1 (mRNA and protein levels)” value in assay [1] was “transcriptional and translational upregulation”; in assay [2], “do not shown the same response”.
Regarding `COc1ccc(C2=N[C@@H](c3ccc(Cl)cc3)[C@@H](c3ccc(Cl)cc3)N2C(=O)N2CCNC(=O)C2)c(OC(C)C)c1` [Nutlin-3a], the “expression of SEQ ID NO:1 (mRNA and protein levels)” value in assay [1] was “transcriptional and translational upregulation”; in assay [2] it was “do not shown the same response”. Further, the figures for the “SEQ ID NO 3 transcriptional levels” value in assay [3] and in assay [4] were “upregulation was impaired” and “upregulated”, respectively.
